This passage reports IC50 results from patent US6506784B1, “Use of 1,3-substituted pyrazol-5-yl sulfonates as pesticides” (3-Dimensional Pharmaceuticals, Inc., priority 1999, dated 2003).

This assay concerns the target Mouse Brain GABA Receptors. In words: In vitro assay of ability to bind mouse brain GABA receptors (3H-EBOB displacement, mouse brain membranes). Conditions: inhibition of 3H-EBOB binding to mouse brain membranes; NI = non-inhibitor. The method, then: Mouse brains were obtained from carbon dioxide-asphyxiated Swiss-Webster mice, washed with phosphate-buffered saline, and used either fresh or after storage at −80° C. for up to 10 months. Unless specified, all preparation steps were performed at 0-4° C. For each preparation, 20 brains were suspended in about 40 mL of 0.32 M sucrose and homogenized for about 2 minutes, using a Tissumizer™ homogenizer equipped with a SDT-100EN probe (available from Tekmar-Dohrmann, Cincinnati, Ohio) running at 50% of its maximum speed. The extract was centrifuged for about 5 min at about 1000×g to pellet intact brain tissue. The supernatant was retained and the pellet washed with an additional 40 mL of 0.32 M sucrose and centrifuged at 1000×g for about 5 minutes. The 1000×g supernatants were combined and centrifuged at about 10,000×g for about 20 min to pellet membranes. The 10,000×g supernatant was discarded and the pellet was resuspended in about 20 mL of water containing 1 mM EDTA. The sample was dialyzed two times for about 3 hours each against about 3 L of water. The sample was then centrifuged at about 25,000×g for about 30 min to pellet the membranes. After centrifugation, the supernatant was discarded and the pellet recovered. The protein concentration of the pellet was determined by the Bio-Rad Protein Assay (available from Bio-Rad Laboratories, Hercules, Calif.) using bovine serum albumin as a standard. The membranes were aliquoted and stored at −80° C. for up to 6 months before use.
Mouse brain membranes were prepared as described above from dissected mouse brains. Test compounds were dissolved in dimethylsulfoxide (DMSO) at concentrations ranging from about 2 nM to about 100 mM. About 1 μL of a dissolved test compound was dispensed into a well of a 96-well polystyrene plate. About 100 μL of ice cold assay buffer (10 mM phosphate, 300 mM NaCl, pH 7.5) containing 5.2 nM 4′-Ethynyl-4-n-[2,3-^3H2]propylbicycloorthobenzoate (^3H-EBOB, 38 Ci/mmol, available from NEN Life Science Products, Boston, Mass.) was added to the well, followed by about 100 μL of ice cold assay buffer containing about 0.25-0.5 mg/ml mouse brain membranes. Control wells were prepared the same way except that the mouse brain membranes were omitted from the “negative” wells, and the test compounds were omitted from the “positive” wells. The samples were incubated for about 45 min at about 24° C. and then filtered on a 0.1% (w/v) polyethylenimine-soaked glass fiber Filtermat A (available from EG&G Wallac Inc., Gaithersburg, Md.) followed by four 100 mL rinses of cold assay buffer using a Harvester 96® cell harvester (available from Tomtec, Orange, Conn.). The filtermat was air dried and radioactivity bound to the filtermat was detected with either a 1450 MicroBeta® Trilux scintillation counter (available from EG&G Wallac Inc.) or a Topcount NXT™ scintillation counter (available from Packard Instrument Co., Meriden, Conn.) using standard methods.
Specific binding was considered to be the difference between total ^3H bound to the mouse brain membranes in the absence of any inhibitors and nonspecific ^3H bound to the mouse brain membranes upon the addition of 5 μM unlabeled EBOB. The average radioactivity contained in the “negative” wells was subtracted from each of the assay wells. […] This value was calculated by plotting the data on a log-linear plot and either dropping a line to the x-axis perpendicular to a line drawn to the y-axis at approximately 50% inhibition of ^3H-EBOB binding, or by fitting the data to the formula I=XY/(X+Z), in which I is the percent inhibition of ^3H-EBOB binding, X is the inhibitor concentration, Y is the maximum percent inhibition of ^3H-EBOB binding observed, and Z is the calculated IC50.

Usually IC50 stands for the concentration that gives 50% inhibition. A low value points to greater potency. `Cn1nc(C(F)(F)F)cc1OS(=O)(=O)c1ccc2ccccc2c1` [compound 13] registered an IC50 of 3 µM.

Take `Cn1nc(C(F)(F)F)cc1OS(=O)(=O)c1cc(Cl)c(Cl)cc1Cl` [compound 1]: the IC50 stood at 8.4 µM.

In the case of `Cn1nc(C(F)(F)F)cc1OS(=O)(=O)c1cccc(F)c1` [compound 8], the IC50 was found to be 0.16 µM.

In turn, `Cn1nc(C(C)(C)C)cc1OS(=O)(=O)c1ccc(Cl)cc1Cl` [compound 17] gave an IC50 of 5.4 µM. With `Cn1nc(C(F)(F)F)cc1OS(=O)(=O)c1c(F)cccc1F` [compound 9] the figure was 6 µM; with `Cn1nc(C(C)(C)C)cc1OS(=O)(=O)c1ccc(F)cc1Cl` [compound 19], 1.3 µM; with `O=S(=O)(Oc1cc(C(F)(F)F)nn1-c1ccccc1)c1ccc(F)c(Cl)c1` [compound 14], 12 µM. With `Cn1nc(C(F)(F)F)cc1OS(=O)(=O)c1ccc(F)c(F)c1` [compound 10] the figure was 1 µM; with `Cn1nc(C(F)(F)F)cc1OS(=O)(=O)c1ccc(Cl)c(Cl)c1` [compound 2], 9 µM.

As to `Cc1cc(S(=O)(=O)Oc2cc(C(F)(F)F)nn2C)ccc1Cl` [compound 7], the IC50 amounted to 11 µM. Turning to `Cc1cc(F)ccc1S(=O)(=O)Oc1cc(C(F)(F)F)nn1C` [compound 11], the IC50 was determined as 3.6 µM. Consider `Cn1nc(C(F)(F)F)cc1OS(=O)(=O)c1cccc(Cl)c1` [compound 4], for which the IC50 is 0.5 µM. In the case of `Cn1nc(C(F)(F)F)cc1OS(=O)(=O)c1cc(Cl)ccc1Cl` [compound 3], the IC50 stood at 2 µM. As to `Cn1nc(C(F)(F)F)cc1OS(=O)(=O)c1ccc(Br)c(Br)c1` [compound 6], the IC50 came out at 12.5 µM. The value for `Cc1c(Cl)cccc1S(=O)(=O)Oc1cc(C(F)(F)F)nn1C` [compound 16] was 12 µM; that for `Cn1nc(C(F)(F)F)cc1OS(=O)(=O)c1ccc(F)cc1Cl` [compound 20, 1-methyl-3-(trifluoromethyl)pyrazol-5-yl 2-chloro-4-fluorobenzenesulfonate] was 3.3 µM. Regarding `Cc1nn(-c2ccccc2)c(OS(=O)(=O)c2ccc(F)cc2Cl)c1Cl` [compound 18], the concentration for half-maximal inhibition (IC50) is 1 µM.

Turning to `Cn1nc(C(F)(F)F)cc1OS(=O)(=O)c1ccc(C(F)(F)F)cc1Cl` [compound 5, 1-methyl-3-(trifluoromethyl)pyrazol-5-yl 2-chloro-4-(trifluoromethyl)benzenesulfonate], the IC50 was found to be 14 µM. Compound `Cn1nc(C(F)(F)F)cc1OS(=O)(=O)c1ccc(Cl)cc1Cl` [compound 12, 1-methyl-3-(trifluoromethyl)pyrazol-5-yl 2,4-dichlorobenzenesulfonate] showed an IC50 of 4.9 µM.
